From patent publication US12077503B2, “Substituted cyclic amides and their use as herbicides” (FMC CORPORATION, priority 2015, dated 2024) come the findings set out here.

Like-named read-outs stand apart in the source and are kept apart here.

Common to all, as to type: in vivo
Assay [1] has as its system barnyardgrass (Echinochloa crus-galli). Put plainly: Test A postemergence. The settings on record: Echinochloa crus-galli, post-emergence, 240 h, 125 g ai/ha. The gist of the method: (§1)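 Preemergence directed soil spray on seeded pots, or postemergence application to plants 2–10 cm, one- to two-leaf. Solvent mixture non-phytotoxic, with surfactant. Scored ~10 d later, visually, 0–100 vs untreated.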

Assay [2] deals with Galium (catchweed bedstraw, Galium aparine). Put plainly: Test A postemergence. The settings on record: Galium, post-emergence, 240 h, 125 g ai/ha. The gist of the method: as §1
The next assay concerns corn (Zea mays). Put plainly: Test A postemergence. The settings on record: Zea mays, post-emergence, 240 h, 125 g ai/ha. An outline of the steps:
as §1

Assay [3] concerns ragweed (common ragweed, Ambrosia elatior). Put plainly: Test A postemergence. As to conditions: Ambrosia artemisiifolia, post-emergence, 240 h, 125 g ai/ha. The gist of the method: as §1
Assay [4] relates to barnyardgrass (Echinochloa crus-galli). Description: Test A preemergence. The settings on record: Echinochloa crus-galli, pre-emergence, 240 h; for pest or weed control at 125 g/ha: 125 g ai/ha; for pest or weed control at 500 g/ha: 500 g ai/ha. The gist of the method: as §1
Assay [5] has as its system giant foxtail (Setaria faberii). Description: Test A preemergence. The settings on record: Setaria faberi, pre-emergence, 240 h; for pest or weed control at 125 g/ha: 125 g ai/ha; for pest or weed control at 500 g/ha: 500 g ai/ha. The gist of the method: as §1
Assay [6] deals with pigweed (Amaranthus retroflexus). Description: Test A preemergence. The settings on record: Amaranthus retroflexus, pre-emergence, 240 h; for pest or weed control at 125 g/ha: 125 g ai/ha; for pest or weed control at 500 g/ha: 500 g ai/ha.
In assay [7] the test system is ragweed (common ragweed, Ambrosia elatior). Put plainly: Test A preemergence. As to conditions: Ambrosia artemisiifolia, pre-emergence, 240 h; for pest or weed control at 125 g/ha: 125 g ai/ha; for pest or weed control at 500 g/ha: 500 g ai/ha. An outline of the steps:
as §1

The subject of assay [8] is ryegrass, Italian (Italian ryegrass, Lolium multiflorum). Put plainly: Test A preemergence. The settings on record: Lolium multiflorum, pre-emergence, 240 h; for pest or weed control at 125 g/ha: 125 g ai/ha; for pest or weed control at 500 g/ha: 500 g ai/ha. The gist of the method: as §1
For another assay, the system named is Kochia (Kochia scoparia). Description: Test A preemergence. As to conditions: Bassia scoparia, pre-emergence, 240 h; for pest or weed control at 125 g/ha: 125 g ai/ha; for pest or weed control at 500 g/ha: 500 g ai/ha. The gist of the method: as §1
The subject of assay [9] is barnyardgrass (Echinochloa crus-galli). Description: Test B flooded paddy test. The settings on record: Echinochloa crus-galli, 250 g ai/ha, Flood, read-out: Barnyardgrass plant response rating. An outline of the steps:
(§2)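 Greenhouse paddy pots with 2-leaf stage plants received compound by direct addition to floodwater 3 cm deep, kept at that level. Scored visually at 13–15 d versus controls (0 no effect; 100 complete control).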

For assay [10], the system named is ducksalad (Heteranthera limosa). Description: Test B flooded paddy test. As to conditions: Heteranthera limosa, 250 g ai/ha, Flood, read-out: Ducksalad plant response rating. The gist of the method:
as §2

In the next assay the test system is rice (Oryra sativa). Description: Test B flooded paddy test. The settings on record: Oryza sativa, 250 g ai/ha, Flood, read-out: Rice plant response rating. An outline of the steps: as §2
In assay [11] the test system is sedge, umbrella (small-flower umbrella sedge, Cyperus difformis). Description: Test B flooded paddy test. As to conditions: Cyperus difformis, 250 g ai/ha, Flood, read-out: Sedge, Umbrella plant response rating. The gist of the method:
as §2

Where [12] appears, read: 0 to 100 scale where 0 is no effect and 100 is complete control.
Setting [13] is: scale of 0 to 100 where 0 is no effect and 100 is complete control.

As for `CN1CC[C@H](c2ccc(OC(F)(F)F)cc2)[C@@H](C(=O)Nc2cccc(F)c2F)C1=O` [Compound 999], the pest or weed control at 125 g/ha in [1] (Postemergence, visual injury after approximately 10 d, 0 to 100 scale where 0 is no effect and 100 is complete control, read-out: Plant response rating, Barnyardgrass) turned out to be 100%; in assay [2] (Postemergence, visual injury after approximately 10 d, 0 to 100 scale where 0 is no effect and 100 is complete control, read-out: Plant response rating, Galium), 0%; in assay [3] (Postemergence, visual injury after approximately 10 d, 0 to 100 scale where 0 is no effect and 100 is complete control, read-out: Plant response rating, Ragweed), 0%; in assay [4] (Preemergence, visual injury rating after approximately 10 d, read-out: Barnyardgrass plant response rating (0 to 100 scale, 0 is no effect, 100 is complete control)), 70%; in assay [5] (Preemergence, visual injury rating after approximately 10 d, read-out: Foxtail, Giant plant response rating (0 to 100 scale, 0 is no effect, 100 is complete control)), 90%; in assay [6] (Preemergence, visual injury rating after approximately 10 d, read-out: Pigweed plant response rating (0 to 100 scale, 0 is no effect, 100 is complete control)) it was 0%. Also, the pest or weed control at 125 g/ha stood at 0% in assay [7] (Preemergence, visual injury rating after approximately 10 d, read-out: Ragweed plant response rating (0 to 100 scale, 0 is no effect, 100 is complete control)); 0% in assay [8] (Preemergence, visual injury rating after approximately 10 d, read-out: Ryegrass, Italian plant response rating (0 to 100 scale, 0 is no effect, 100 is complete control)); 0% in the assay on Kochia (Kochia scoparia) (Preemergence, visual injury rating after approximately 10 d, read-out: Kochia plant response rating (0 to 100 scale, 0 is no effect, 100 is complete control)). The Corn plant response rating (crop injury, 0 = no effect, 100 = complete kill) at 125 g/ha in the assay with corn (Zea mays) (Postemergence, visual injury after approximately 10 d, 0 to 100 scale where 0 is no effect and 100 is complete control) was determined as 0%. In addition, the pest or weed control at 500 g/ha in [4] (preemergence, visual injury rating about 10 d after treatment, 0 to 100 scale (0 no effect, 100 complete control), read-out: Barnyardgrass plant response rating) came to 90%; in assay [5] (preemergence, visual injury rating about 10 d after treatment, 0 to 100 scale (0 no effect, 100 complete control), read-out: Foxtail, Giant plant response rating), 90%; in [6] (preemergence, visual injury rating about 10 d after treatment, 0 to 100 scale (0 no effect, 100 complete control), read-out: Pigweed plant response rating) it was 50%; in assay [7] (preemergence, visual injury rating about 10 d after treatment, 0 to 100 scale (0 no effect, 100 complete control), read-out: Ragweed plant response rating) it was 30%; in assay [8] (preemergence, visual injury rating about 10 d after treatment, 0 to 100 scale (0 no effect, 100 complete control), read-out: Ryegrass, Italian plant response rating) it was 50%; with Kochia (Kochia scoparia) (preemergence, visual injury rating about 10 d after treatment, 0 to 100 scale (0 no effect, 100 complete control), read-out: Kochia plant response rating), 20%. In addition, the pest or weed control at 250 g/ha in [9] (setting [12]) is 0%; in assay [10] (setting [12]), 85%; with rice (Oryra sativa) (setting [12]), 0%; in assay [11] (setting [12]) it was 0%.
As for `Cc1cc(C)cc([C@H]2CNC(=O)[C@@H]2C(=O)Nc2ccccc2F)c1` [Compound 888], the pest or weed control at 125 g/ha was 90% in [1] (postemergence, visual injury rating after approximately 10 d, read-out: Barnyardgrass plant response rating (0 to 100 scale, 0 no effect, 100 complete control)); 0% in assay [2] (postemergence, visual injury rating after approximately 10 d, read-out: Galium plant response rating (0 to 100 scale, 0 no effect, 100 complete control)); 0% in assay [3] (postemergence, visual injury rating after approximately 10 d, read-out: Ragweed plant response rating (0 to 100 scale, 0 no effect, 100 complete control)); 90% in assay [4] (preemergence, 0 to 100 scale where 0 is no effect and 100 is complete control, read-out: Barnyardgrass plant response rating); 80% in [5] (preemergence, 0 to 100 scale where 0 is no effect and 100 is complete control, read-out: Foxtail, Giant plant response rating); 0% in [6] (preemergence, 0 to 100 scale where 0 is no effect and 100 is complete control, read-out: Pigweed plant response rating). The pest or weed control at 125 g/ha is 0% in assay [7] (preemergence, 0 to 100 scale where 0 is no effect and 100 is complete control, read-out: Ragweed plant response rating); 0% in assay [8] (preemergence, 0 to 100 scale where 0 is no effect and 100 is complete control, read-out: Ryegrass, Italian plant response rating); 60% in the assay with Kochia (Kochia scoparia) (preemergence, 0 to 100 scale where 0 is no effect and 100 is complete control, read-out: Kochia plant response rating). Besides, the plant injury at 125 g/ha in the assay with corn (Zea mays) (postemergence, visual injury rating after approximately 10 d, read-out: Corn plant response rating (0 to 100 scale, 0 no effect, 100 complete control)) was 0%. In addition, the pest or weed control at 500 g/ha in [4] (Preemergence, visual injury vs untreated controls after approximately 10 d, read-out: Barnyardgrass plant response rating (0 to 100 scale where 0 is no effect and 100 is complete control)) stood at 90%; in assay [5] (Preemergence, visual injury vs untreated controls after approximately 10 d, read-out: Foxtail, Giant plant response rating (0 to 100 scale where 0 is no effect and 100 is complete control)) it was 90%; in assay [6] (Preemergence, visual injury vs untreated controls after approximately 10 d, read-out: Pigweed plant response rating (0 to 100 scale where 0 is no effect and 100 is complete control)), 0%; in [7] (Preemergence, visual injury vs untreated controls after approximately 10 d, read-out: Ragweed plant response rating (0 to 100 scale where 0 is no effect and 100 is complete control)), 0%; in assay [8] (Preemergence, visual injury vs untreated controls after approximately 10 d, read-out: Ryegrass, Italian plant response rating (0 to 100 scale where 0 is no effect and 100 is complete control)), 60%; in the assay with Kochia (Kochia scoparia) (Preemergence, visual injury vs untreated controls after approximately 10 d, read-out: Kochia plant response rating (0 to 100 scale where 0 is no effect and 100 is complete control)), 80%. For the same compound, the pest or weed control at 250 g/ha is 70% in assay [9] (setting [13]), 75% in [10] (setting [13]), 0% in the assay with rice (Oryra sativa) (setting [13]) and 0% in [11] (setting [13]).
